Results reported in US20250231185A1, “Coronavirus T Cell Epitopes, Megapools and Uses Thereof” (La Jolla Institute for Immunology, priority 2021, published 2025).
Where two headings read alike, the source gives them in different places.

Experiments:
[1] = test system: CD8+ T cells; test: Meta-analysis of published SARS-CoV-2 CD8 T cell epitope data curated in the IEDB (25 studies); assay type: cell-based, human; details: dominant = recognized by 3 or more donors/different studies
[2] = test system: CD8+ T cells; details: cited from earlier work
[3] = SARS-CoV-2-derived CD8 epitopes
[4] = T cell type (CD4 or CD8) recognizing the SARS-CoV-2 epitope
[5] = SARS-CoV-2 Ag S, T cell type recognizing the epitope

| Substance | Dominant [1, 3] | Restriction [2, 4] | Dominant ([1]; SARS-CoV-2 Ag S, CD8 epitopes) | Restriction [2, 5] |
| --- | --- | --- | --- | --- |
| 1033 (SSNVANYQK) [compound 1033] | Yes (more dominant epitopes are defined by being recognized by 3 or more donors/different studies) | CD8 |  |  |
| 1461 (QYIKWPWYI) [compound 1461] |  |  | Yes (more dominant epitopes are defined by being recognized by 3 or more donors/different studies) | CD8 |
| 913 (YTELEPPCRF) [compound 913] | Yes (more dominant epitopes are defined by being recognized by 3 or more donors/different studies) | CD8 |  |  |
| 961 (ISDYDYYRY) [compound 961] | Yes (more dominant epitopes are defined by being recognized by 3 or more donors/different studies) | CD8 |  |  |
| 1392 (LQIPFAMQMAY) [compound 1392] |  |  | Yes (more dominant epitopes are defined by being recognized by 3 or more donors/different studies) | CD8 |
| 920 (TVLSFCAFAV) [compound 920] | Yes (more dominant epitopes are defined by being recognized by 3 or more donors/different studies) | CD8 |  |  |
| 1431 (VVFLHVTYV) [compound 1431] |  |  | Yes (more dominant epitopes are defined by being recognized by 3 or more donors/different studies) | CD8 |
| 970 (RLYYDSMSY) [compound 970] | Yes (more dominant epitopes are defined by being recognized by 3 or more donors/different studies) | CD8 |  |  |
| 1082 (LLLDDFVEII) [compound 1082] | Yes (more dominant epitopes are defined by being recognized by 3 or more donors/different studies) | CD8 |  |  |
| 1067 (KQFDTYNLW) [compound 1067] | Yes (more dominant epitopes are defined by being recognized by 3 or more donors/different studies) | CD8 |  |  |
| 1056 (IEYPIIGDEL) [compound 1056] | Yes (more dominant epitopes are defined by being recognized by 3 or more donors/different studies) | CD8 |  |  |
| 1027 (VYRGTTTYKL) [compound 1027] | Yes (more dominant epitopes are defined by being recognized by 3 or more donors/different studies) | CD8 |  |  |
| 1452 (RLNEVAKNL) [compound 1452] |  |  | Yes (more dominant epitopes are defined by being recognized by 3 or more donors/different studies) | CD8 |
| 966 (VVDKYFDCY) [compound 966] | Yes (more dominant epitopes are defined by being recognized by 3 or more donors/different studies) | CD8 |  |  |
| 1422 (HLMSFPQSA) [compound 1422] |  |  | Yes (more dominant epitopes are defined by being recognized by 3 or more donors/different studies) | CD8 |
| 1008 (RILGAGCFV) [compound 1008] | Yes (more dominant epitopes are defined by being recognized by 3 or more donors/different studies) | CD8 |  |  |
| 1365 (STECSNLLLQY) [compound 1365] |  |  | Yes (more dominant epitopes are defined by being recognized by 3 or more donors/different studies) | CD8 |
| 1315 (FQPTNGVGY) [compound 1315] |  |  | Yes (more dominant epitopes are defined by being recognized by 3 or more donors/different studies) | CD8 |
| 1304 (NYNYLYRLFRK) [compound 1304] |  |  | Yes (more dominant epitopes are defined by being recognized by 3 or more donors/different studies) | CD8 |
| 1055 (AIMTRCLAV) [compound 1055] | Yes (more dominant epitopes are defined by being recognized by 3 or more donors/different studies) | CD8 |  |  |
| 1458 (YEQYIKWPWYI) [compound 1458] |  |  | Yes (more dominant epitopes are defined by being recognized by 3 or more donors/different studies) | CD8 |
| 1029 (KLNVGDYFV) [compound 1029] | Yes (more dominant epitopes are defined by being recognized by 3 or more donors/different studies) | CD8 |  |  |
| 1396 (TQNVLYENQK) [compound 1396] |  |  | Yes (more dominant epitopes are defined by being recognized by 3 or more donors/different studies) | CD8 |
| 1019 (VLQAVGACV) [compound 1019] | Yes (more dominant epitopes are defined by being recognized by 3 or more donors/different studies) | CD8 |  |  |
| 1342 (IGAEHVNNSY) [compound 1342] |  |  | Yes (more dominant epitopes are defined by being recognized by 3 or more donors/different studies) | CD8 |
| 931 (TMADLVYAL) [compound 931] | Yes (more dominant epitopes are defined by being recognized by 3 or more donors/different studies) | CD8 |  |  |
| 1053 (TYACWHHSI) [compound 1053] | Yes (more dominant epitopes are defined by being recognized by 3 or more donors/different studies) | CD8 |  |  |

| Substance | Dominant [1, 3] | Restriction [2, 4] | Dominant ([1]; SARS-CoV-2 Ag S, CD8 epitopes) | Restriction [2, 5] |
| --- | --- | --- | --- | --- |
| 1012 (LYLQYIRKL) [compound 1012] | Yes (more dominant epitopes are defined by being recognized by 3 or more donors/different studies) | CD8 |  |  |
| 1020 (LVLSVNPYV) [compound 1020] | Yes (more dominant epitopes are defined by being recognized by 3 or more donors/different studies) | CD8 |  |  |
| 1085 (GVAMPNLYK) [compound 1085] | Yes (more dominant epitopes are defined by being recognized by 3 or more donors/different studies) | CD8 |  |  |
| 922 (DLKGKYVQI) [compound 922] | Yes (more dominant epitopes are defined by being recognized by 3 or more donors/different studies) | CD8 |  |  |
| 1462 (KWPWYIWLGF) [compound 1462] |  |  | Yes (more dominant epitopes are defined by being recognized by 3 or more donors/different studies) | CD8 |
| 1379 (LLFNKVTLA) [compound 1379] |  |  | Yes (more dominant epitopes are defined by being recognized by 3 or more donors/different studies) | CD8 |
| 1425 (FPQSAPHGVVF) [compound 1425] |  |  | Yes (more dominant epitopes are defined by being recognized by 3 or more donors/different studies) | CD8 |
| 1362 (TEILPVSMTK) [compound 1362] |  |  | Yes (more dominant epitopes are defined by being recognized by 3 or more donors/different studies) | CD8 |
| 1026 (VVYRGTTTY) [compound 1026] | Yes (more dominant epitopes are defined by being recognized by 3 or more donors/different studies) | CD8 |  |  |
| 903 (FTYASALWEI) [compound 903] | Yes (more dominant epitopes are defined by being recognized by 3 or more donors/different studies) | CD8 |  |  |
| 1350 (SVASQSIIAY) [compound 1350] |  |  | Yes (more dominant epitopes are defined by being recognized by 3 or more donors/different studies) | CD8 |
| 1347 (SPRRARSVA) [compound 1347] |  |  | Yes (more dominant epitopes are defined by being recognized by 3 or more donors/different studies) | CD8 |
| 1453 (NLNESLIDL) [compound 1453] |  |  | Yes (more dominant epitopes are defined by being recognized by 3 or more donors/different studies) | CD8 |
| 1084 (MLWCKDGHV) [compound 1084] | Yes (more dominant epitopes are defined by being recognized by 3 or more donors/different studies) | CD8 |  |  |
| 1367 (LLQYGSFCT) [compound 1367] |  |  | Yes (more dominant epitopes are defined by being recognized by 3 or more donors/different studies) | CD8 |
| 1313 (YFPLQSYGF) [compound 1313] |  |  | Yes (more dominant epitopes are defined by being recognized by 3 or more donors/different studies) | CD8 |
| 1345 (IPIGAGICASY) [compound 1345] |  |  | Yes (more dominant epitopes are defined by being recognized by 3 or more donors/different studies) | CD8 |
| 1042 (IVDTVSALV) [compound 1042] | Yes (more dominant epitopes are defined by being recognized by 3 or more donors/different studies) | CD8 |  |  |
| 1025 (VVYRGTTTYK) [compound 1025] | Yes (more dominant epitopes are defined by being recognized by 3 or more donors/different studies) | CD8 |  |  |
| 943 (KLFDRYFKY) [compound 943] | Yes (more dominant epitopes are defined by being recognized by 3 or more donors/different studies) | CD8 |  |  |
| 1303 (NYNYLYRLF) [compound 1303] |  |  | Yes (more dominant epitopes are defined by being recognized by 3 or more donors/different studies) | CD8 |
| 1466 (SEPVLKGVKL) [compound 1466] |  |  | Yes (more dominant epitopes are defined by being recognized by 3 or more donors/different studies) | CD8 |
| 995 (FYAYLRKHF) [compound 995] | Yes (more dominant epitopes are defined by being recognized by 3 or more donors/different studies) | CD8 |  |  |
| 910 (CTDDNALAYY) [compound 910] | Yes (more dominant epitopes are defined by being recognized by 3 or more donors/different studies) | CD8 |  |  |
| 930 (YTMADLVYAL) [compound 930] | Yes (more dominant epitopes are defined by being recognized by 3 or more donors/different studies) | CD8 |  |  |
| 1352 (SIIAYTMSL) [compound 1352] |  |  | Yes (more dominant epitopes are defined by being recognized by 3 or more donors/different studies) | CD8 |
